Laboratory results: US20220142958A1, “MEDICINAL COMPOSITION HAVING EXCELLENT STABILITY” (EA Pharma Co., Ltd., priority 2019, published 2022)

Experiments:
[1] = Example 1A: residual ratio of Compound A1 in buffer solutions stored at 5° C.; format: physicochemical; conditions: for Residual ratio (%): 0.1 mg/mL
Protocol: Compound A1 was dissolved in each of the buffer solutions so that a concentration was 0.1 mg/mL. Each of these solutions was dispensed into a glass vial and stored at 5° C. After the storage, a residual ratio was calculated according to a test method described below.
Test method: In the solution after the storage, the residual ratio was analyzed according to a normal method using a liquid chromatography apparatus Prominence (manufactured by Shimadzu Corporation) and an ultraviolet absorptiometer (measurement wavelength: 254 nm, Prominence (manufactured by Shimadzu Corporation)). At this time, SUMIPAX ODS (3 mm×150 mm, 5 μm, manufactured by SCAS) was used as a column.
The residual ratio (%) of Compound A1 during each storage period at 5° C. was calculated as follows.
Residual ratio (%) of Compound A1 during each storage period=peak area of Compound A1 in sample solution/sum of peak area of sample solution×100

[2] = test system: male beagles; experiment: Emetogenicity of Compound A1 in dogs; format: in vivo, dog; conditions: for Number of vomiting cases/Number of administration: Intravenous
Protocol: A crossover trial was conducted with male beagles (Nosan Beagle, 14 to 87-month-old, weight: 10.2 kg to 15.8 kg). The Compound A1 solutions used in Reference Example 2 were given at 0.3, 1 and 10 mg/kg by bolus administration (0.5 mL/kg, 1 mL/sec) to 3 to 6 dogs per dose to confirm the manifestation of vomiting immediately after the administration. Administration was conducted once or twice a week with an interval of 2 days or longer. Administration was conducted prior to feeding. Symptoms prior to, immediately after, and 15 and 30 minutes after the administration were observed.

[3] = test system: serum iPTH; experiment: Estimation of EC50, PK and clinically effective dose in patients with renal failure; set-up: species or system human
Text: EC50 value in patient with renal failure was estimated based on the calculated EC50 value in healthy adults and the results from the same analysis in normal rats and adenine-treated rat models (pathological rat models). […] Since the difference in the EC50 value between rats in normal state and pathological state is presumed to be caused by the changes in PK that are considered to greatly vary between normal state and pathological state, similar tendency is expected in human as well.
The result from PK fitting, and the contribution rate of renal elimination of the drug (3.2%) calculated using PK-sim (registered trademark) were used to simulate PK prediction in the patients with renal failure. […] As a result, administration of a dose of 0.06 mg/man was estimated to maintain a concentration higher than 1.4 ng/mL for 72 hours (FIG. 2-8).

[4] = test system: SHPT patients on maintenance hemodialysis; experiment: Phase I/II clinical trial, repeated administration; format: in vivo, human; conditions: for percentage decrease in the serum iPTH concentration: Day 22 (three days after the ninth administration)
Protocol: Targeting SHPT patients on maintenance hemodialysis, pharmacokinetics, pharmacodynamics and safety upon single or repeated intravenous administration of Compound A1 were examined by conducting a double-blind test using a placebo as a control.
Repeated administration: Based on the clinically effective dose calculated in Reference Example 5, the doses were given in 3 steps, namely, 0.05 mg, 0.1 mg, and 0.2 mg. The trial drug was (intravenously) infused from the venous side of the dialysis circuit before the end of dialysis three times a week for 22 days (total of 9 times) starting from the first day of administration of the trial drug. Here, the trial drug was administered by diluting a required dose taken from the Compound A1 vial formulation prepared as follows with sterilized water for injection, and filling a syringe with the resultant in accordance with the dose to be administered.
Each item was evaluated according to the predetermined evaluation schedule.
A vial formulation encapsulating 1 mg of Compound A1 in terms of a dehydrate, and sodium chloride, disodium hydrogen phosphate dodecahydrate, and sodium dihydrogen phosphate dihydrate as additives in 10 ml of sterilized water for injection

For Cc1c(Cl)cc(S(=O)(=O)[O-])cc1NC(=O)NC[C@H](N)C(=O)O.[Na+] [Compound A1, sodium 3-{[(2S)-2-amino-2-carboxyethyl]carbamoylamino}-5-chloro-4-methylbenzenesulfonate], the “Residual ratio (%)” value ([1]; pH 1.1, 5° C., 24 hours) was 100%, the “Residual ratio (%)” value ([1]; pH 1.1, 5° C., 113 hours) was 100% and the “Residual ratio (%)” value ([1]; pH 1.1, 5° C., 161 hours) was 100%. For the same compound, the “Residual ratio (%)” value ([1]; pH 2.0, 5° C., 24 hours) was 100%, the “Residual ratio (%)” value ([1]; pH 2.0, 5° C., 113 hours) was 100% and the “Residual ratio (%)” value ([1]; pH 2.0, 5° C., 161 hours) was 100%. The “Residual ratio (%)” value ([1]; pH 3.0, 5° C., 24 hours) was 100%, the “Residual ratio (%)” value ([1]; pH 3.0, 5° C., 113 hours) was 100% and the “Residual ratio (%)” value ([1]; pH 3.0, 5° C., 161 hours) was 100%. For the same compound, the “Residual ratio (%)” value ([1]; pH 4.0, 5° C., 24 hours) was 100%, the “Residual ratio (%)” value ([1]; pH 4.0, 5° C., 113 hours) was 100% and the “Residual ratio (%)” value ([1]; pH 4.0, 5° C., 161 hours) was 100%. The “Residual ratio (%)” value ([1]; pH 5.0, 5° C., 24 hours) was 100%, the “Residual ratio (%)” value ([1]; pH 5.0, 5° C., 113 hours) was 100% and the “Residual ratio (%)” value ([1]; pH 5.0, 5° C., 161 hours) was 100%. For the same compound, the “Residual ratio (%)” value ([1]; pH 6.0, 5° C., 24 hours) was 100%, the “Residual ratio (%)” value ([1]; pH 6.0, 5° C., 113 hours) was 100% and the “Residual ratio (%)” value ([1]; pH 6.0, 5° C., 161 hours) was 100%. The “Residual ratio (%)” value ([1]; pH 7.0, 5° C., 24 hours) was 100%, the “Residual ratio (%)” value ([1]; pH 7.0, 5° C., 113 hours) was 100% and the “Residual ratio (%)” value ([1]; pH 7.0, 5° C., 161 hours) was 100%. For the same compound, the “stability of the formulation” value ([1]; pH of 1.1 to 7.0, 5° C.) was “stable”, the “Number of vomiting cases/Number of administration” value ([2]; 0.3 mg/kg) was 0/3 and the “Number of vomiting cases/Number of administration” value ([2]; 1 mg/kg) was 0/3. For the same compound, the “Number of vomiting cases/Number of administration” value ([2]; 10 mg/kg) was 1/6, the “therapeutic margin with respect to vomiting (dog C0 vs human C0)” value ([2]; dog 1 mg/kg vs human 0.1 mg/man) was ≥ 430 times and the “dose estimated to maintain a concentration higher than 1.4 ng/mL for 72 hours” value ([3]; PK simulation) was 0.06 mg/man. The “EC50 (estimated)” value ([3]; scaling factor applied to human) was > 1.4 ng/mL, the “percentage decrease in the serum iPTH concentration” value (“percentage decrease” below) ([4]; 0.05 mg dose group) was 8% and the “percentage decrease” value ([4]; 0.1 mg dose group) was 25%. The “percentage decrease” value ([4]; 0.2 mg dose group) was 36%, the accumulating property ([4]; repeated administration) was “no accumulating property” and the elimination by dialysis ([4]; repeated administration) was “rapidly eliminated by dialysis”. For the same compound, the “trough concentration before the dialysis following the longest interval” value ([4]; repeated administration) was “generally constant”, the “decrease in the corrected Ca” value ([4]; repeated administration, 0.05 mg dose group (mild)) was “observed” and the “decrease in the corrected Ca” value ([4]; repeated administration, 0.1 mg dose group) was “not observed”. For the same compound, the “decrease in the corrected Ca” value ([4]; repeated administration, 0.2 mg dose group (mild)) was “observed” and the “form present in the plasma” value ([4]; repeated administration, three times a week for 22 days) was “mainly as an unchanged substance”.
